Results on two compounds are retold here after the NIST ThermoML archive (doi:10.1016/j.jct.2010.10.021).

The speed of sound is the propagation velocity of pressure waves in the medium.

Several values for one entry are separate records, joined by “and”; a condition that tells them apart may be missing. Equal values may be shown once. ± gives the expanded uncertainty stated by the source.

A short description of the data set: xn = mol fraction of the nth substance listed. Particulars: 100 kPa, Liquid, Frequency=5 MHz, Single path-length method, x1 = 0.7.

In the case of `[F-].[Li+]` [lithium fluoride] + [Br-].[K+], the speed of sound is listed as 1408 ± 28 m/s (1243 K), 1394 ± 28 m/s (1254 K) and 1385 ± 28 m/s (1260 K).

Turning to `[F-].[Li+]` [lithium fluoride] + [Cl-].[Cs+], the speed of sound was 1236 ± 25 m/s and 1235 ± 25 m/s (1261 K); 1226 ± 25 m/s (1271 K); 1220 ± 24 m/s (1278 K).
